Measured values reported in patent US20230295145A1, “PYRROLIDINE DERIVATIVES AND METHODS OF USE” (Genentech, Inc., priority 2020, published 2023).
Read-outs that look alike come from different tables or passages of the source. Values belong to the compound of their own block, whether it stands above or below them.

Legend:
NCI-H1650 = experiment: Cell Viability Assay (CellTiter-Glo); assay type: cell-based; conditions: 10 μM, 5 days
Description: (§1) Cell lines were cultured in RPMI-1640, 5% fetal bovine serum, and 2 mM glutamine in a humidified incubator maintained at 37° C. with 5% CO2. Cells were assessed with a Vi-CELL Cell Viability Analyzer (Beckman Coulter; Brea, CA); viability of at least 90% was required for screening. A Multidropä Combi Reagent Dispenser (Thermo Scientific; Waltham, MA) was used to plate cells into Falcons^â 384-well, black, clear-bottom plates (Catalog No. 353962; Corning; Tewksbury, MA) using seeding densities previous determined to achieve approximately 80% confluence at the final time point of the assay. The compounds were prepared at 1000× in advance using an Echo 555 liquid handler (Labcyte; Sunnyvale, CA) and stored in −80° C. until the day of compound addition. On the following day, cells were treated with compounds at final assay concentration 1 uM and 10 uM using a Bravo Automated Liquid-Handling Platform (Agilent; Santa Clara, CA). After 5 days, 25 mL CellTiter-Glo^â reagent was added using a MultiFloä Microplate Dispenser (BioTek; Winooski, VT). Cell lysis was induced by mixing for 30 minutes on an orbital shaker; plates were then incubated at room temperature for 10 minutes to stabilize the luminescent signal. Luminescence was read by a 2104 EnVision^â Multilabel Plate Reader (PerkinElmer; Waltham, MA). […]

HCC1438 = experiment: Cell Viability Assay (CellTiter-Glo); assay type: cell-based; conditions: 10 μM, 5 days
Description: as §1

MCF-7 = experiment: Cell Viability Assay (CellTiter-Glo); assay type: cell-based; conditions: 10 μM, 5 days
Description: as §1

ABC-1 = experiment: Cell Viability Assay (CellTiter-Glo); assay type: cell-based; conditions: 10 μM, 5 days
Description: (§2) Cell lines were cultured in RPMI-1640, 5% fetal bovine serum, and 2 mM glutamine in a humidified incubator maintained at 37° C. with 5% CO2. Cells were assessed with a Vi-CELL Cell Viability Analyzer (Beckman Coulter; Brea, CA); viability of at least 90% was required for screening. A Multidropä Combi Reagent Dispenser (Thermo Scientific; Waltham, MA) was used to plate cells into Falcons^â 384-well, black, clear-bottom plates (Catalog No. 353962; Corning; Tewksbury, MA) using seeding densities previous determined to achieve approximately 80% confluence at the final time point of the assay. The compounds were prepared at 1000× in advance using an Echo 555 liquid handler (Labcyte; Sunnyvale, CA) and stored in −80° C. until the day of compound addition. On the following day, cells were treated with compounds at final assay concentration 1 uM and 10 uM using a Bravo Automated Liquid-Handling Platform (Agilent; Santa Clara, CA). After 5 days, 25 mL CellTiter-Glo^â reagent was added using a MultiFloä Microplate Dispenser (BioTek; Winooski, VT). Cell lysis was induced by mixing for 30 minutes on an orbital shaker; plates were then incubated at room temperature for 10 minutes to stabilize the luminescent signal. Luminescence was read by a 2104 EnVision^â Multilabel Plate Reader (PerkinElmer; Waltham, MA).
(§3) The data was processed using Genedata Screener^â, Version 15 (Genedata; Basel, Switzerland) to assess compound effects on viability. Compound treated wells were normalized to the median value of 14 DMSO control wells on the same 384 well plate.

KPL-4 = experiment: Cell Viability Assay (CellTiter-Glo); assay type: cell-based; conditions: 10 μM, 5 days
Description: as §1

PANC-1 = experiment: Cell Viability Assay (CellTiter-Glo); assay type: cell-based; conditions: 5 days
Description: as §2, §3

NCI-H23 = experiment: Cell Viability Assay (CellTiter-Glo); assay type: cell-based; conditions: 5 days
Description: as §2, §3

CAL-120 [1] = experiment: Cell Viability Assay (CellTiter-Glo); conditions: 5 days
Description: as §2, §3

SUIT-2 = experiment: Cell Viability Assay (CellTiter-Glo); assay type: cell-based; conditions: 10 μM, 5 days
Description: as §1

MDA-MB-436 = experiment: Cell Viability Assay (CellTiter-Glo); assay type: cell-based; conditions: 10 μM, 5 days
Description: as §1

HCC366 = experiment: Cell Viability Assay (CellTiter-Glo); assay type: cell-based; conditions: 5 days
Description: as §2, §3

KNS-62 = experiment: Cell Viability Assay (CellTiter-Glo); assay type: cell-based; conditions: 5 days
Description: as §2, §3

NCI-H2030 = experiment: Cell Viability Assay (CellTiter-Glo); assay type: cell-based; conditions: 5 days
Description: as §2, §3

KPL-1 = experiment: Cell Viability Assay (CellTiter-Glo); assay type: cell-based; conditions: 5 days
Description: as §2, §3

VHL [2] = biological target: T1, VHL (Homo sapiens, UniProt P40337); experiment: VHL HEK-293 BRET Assay (VHL NanoBRET Target Engagement Assay); assay type: cell-based; conditions: HEK 293 RT VHL-NanoLuc stable cells
T1 construct: expressed in transfected cells
Description: The VHL NanoBRET™ Target Engagement Assay analyzes the apparent affinity of test compounds for VHL in cells by competitive displacement of a VHL NanoBRET™ tracer reversibly bound to a NanoLuc® VHL fusion protein stably expressed in the cells.
Test compounds were transferred to the assay plate (384 Well White Non-Binding Corning Assay Plates (Corning-3574)) using an Echo 555 Liquid Handler (Labcyte) in 2.5 nL increments and, as appropriate, intermediate stock concentrations of compounds, in order to prepare a titration series. 50 nL of control compound (10 mM; parental unlabeled VHL antagonist; see structure below) and 50 nL of DMSO (negative control) were dispensed into the appropriate control wells. DMSO was backfilled to a final volume of 50 nL as required. 50 nl per well of 1 mM VHL NanoBRET™ Tracer in DMSO (NanoBRET™ Tracer-PEG2-590 (see structure below)) was transferred into each well using an Echo 555 (ultimately yielding a final concentration of 1 uM). HEK 293 RT VHL-NanoLuc® stable cells were cultured in DMEM High Glucose with Pyruvate, 10% fetal bovine serum, 2 mg/mL of Geneticin Selective Antibiotic (50 mg/mL) and 2 mM HEPES (1 M). Cells were seeded in Opti-MEM (Life Technologies-11058-021), 1.7×10^5 cells/mL, 40 μl per well into the assay plate, centrifuged at 500 rpm for 30 seconds and incubated for 2 hours. Max Signal control wells consisted of DMSO only treated wells. Minimum Signal control wells contained of 10 uM parental unlabeled VHL antagonist (control compound—see structure below). 3× Complete Substrate plus Inhibitor Solution was prepared in Opti-MEM (consists of a 1:166 dilution of NanoBRET™ Nano-Glo® Substrate plus a 1:500 dilution of Extracellular NanoLuc® Inhibitor in Opti-MEM), and 20 ul was dispensed into each well of the 384-well plate and centrifuged at 1000 rpm for 1 minute, then incubated for 2 minutes at room temperature. Background Signal control wells were prepared without tracer for background correction steps.
Plates were read using a PerkinElmer Envision Reader (model 2104-0020) equipped with Luminescence option (Mirror: BRET2 Enh (PE Barcode 659), Emission Filter: Omega 610LP (Barcode 504), 2nd Emission Filter: Umbelliferone 460 (Barcode 207), Measurement height: 6.5 mm, Measurement time: 1 s). The raw BRET ratio values were calculated by dividing the acceptor emission value (610 nm) by the donor emission value (460 nm) for each sample. To correct for background, the BRET ratio in the absence of tracer (average of no-tracer control samples) was subtracted from the BRET ratio of each sample. Raw BRET units were converted to milliBRET units (mBU) by multiplying each raw BRET value by 1,000. The normalized NanoBRET™ signal was calculated relative to the Max Signal control wells (DMSO treated control wells) and the Minimum Signal control wells. Percentage inhibition was calculated relative to the Minimum Signal control and Maximum Signal control wells. IC50 values were derived by four parameter curve fitting using the Robust method.

SW 620 = experiment: Cell Viability Assay (CellTiter-Glo); assay type: cell-based; conditions: 10 μM, 5 days
Description: as §1

VHL [3] = biological target: T1, VHL; experiment: VHL HEK-293 BRET Assay (VHL NanoBRET Target Engagement Assay); assay type: cell-based; conditions: IC50 values measured in the presence of digitonin; HEK 293 RT VHL-NanoLuc stable cells; read-out: IC50 + Digi (μM)*
CAL-120 [4] = conditions: 10 µM
Description: as §2, §3

T1 sequence (P40337 whole entry): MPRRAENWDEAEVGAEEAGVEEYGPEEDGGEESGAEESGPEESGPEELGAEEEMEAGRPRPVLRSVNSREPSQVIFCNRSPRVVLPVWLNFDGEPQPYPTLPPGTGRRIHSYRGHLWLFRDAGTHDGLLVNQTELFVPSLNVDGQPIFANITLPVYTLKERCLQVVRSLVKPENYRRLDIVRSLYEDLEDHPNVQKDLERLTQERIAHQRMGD

IC50 (VHL [2]; read-out: IC50): 0.00794 µM
IC50 (VHL [3]): 0.0132 µM
Compound: Cc1ncsc1-c1ccc(CNC(=O)[C@@H]2C[C@@H](O)CN2C(=O)[C@@H](n2cc(C3CC3)nn2)C(C)(C)C)cc1 [Compound 288, (2S,4R)-1-[(2S)-2-(4-cyclopropyltriazol-1-yl)-3,3-dimethyl-butanoyl]-4-hydroxy-N-[[4-(4-methylthiazol-5-yl)phenyl]methyl]pyrrolidine-2-carboxamide]
Normalized viability % DMSO (NCI-H1650): 27.7 % DMSO
Normalized viability % DMSO (HCC1438): 2.1 % DMSO
Normalized viability % DMSO (MCF-7): 25.8 % DMSO
Normalized viability % DMSO (ABC-1): 7.1 % DMSO
Normalized viability % DMSO (KPL-4): 2.2 % DMSO
Normalized viability % DMSO (PANC-1; 1 μM): 33.9 % DMSO
Normalized viability % DMSO (PANC-1; 10 μM): 31.1 % DMSO
Normalized viability % DMSO (NCI-H23; 1 μM): 8.6 % DMSO
Normalized viability % DMSO (NCI-H23; 10 μM): 6.7 % DMSO
Normalized viability % DMSO (CAL-120 [1]; 1 μM): 31.1 % DMSO
Normalized viability % DMSO (CAL-120 [1]; 10 μM): 31.9 % DMSO
Normalized viability % DMSO (SUIT-2): 30.2 % DMSO
Normalized viability % DMSO (MDA-MB-436): 15.8 % DMSO
Normalized viability % DMSO (HCC366; 1 μM): 43.0 % DMSO
Normalized viability % DMSO (HCC366; 10 μM): 22.5 % DMSO
Normalized viability % DMSO (KNS-62; 1 μM): 44.3 % DMSO
Normalized viability % DMSO (KNS-62; 10 μM): 26.4 % DMSO
Normalized viability % DMSO (NCI-H2030; 1 μM): 19.2 % DMSO
Normalized viability % DMSO (NCI-H2030; 10 μM): 16.5 % DMSO
Normalized viability % DMSO (KPL-1; 1 μM): 40.5 % DMSO
Normalized viability % DMSO (KPL-1; 10 μM): 25.4 % DMSO
Normalized viability % DMSO (SW 620): 28.2 % DMSO

IC50 (VHL [2]; read-out: IC50): 0.21 µM
IC50 (VHL [2]; IC50 values measured in the presence of digitonin, read-out: IC50 + Digi (μM)*): 0.435 µM
Compound: (2S,4R)-N-[2-(4-bromoindol-1-yl)ethyl]-1-[(2S)-2-(4-cyclopropyltriazol-1-yl)-3,3-dimethyl-butanoyl]-4-hydroxy-pyrrolidine-2-carboxamide [Compound 469]
Normalized viability % DMSO (CAL-120 [4]): 62.6 % DMSO
